# Assay results reported in US20230053540A1, “TREATMENT OF LIVER INJURY” (Massachusetts Institute of Technology, priority 2019, published 2023).
# Test system: hepatocytes
# Test: Seq-Well scRNA-Seq of hepatocytes after APAP overdose (signature scores, DEG vs untreated)
# Assay type: in vivo, mouse
# [1] = hepatocyte cluster A96 (APAP, 96 h) vs all other clusters
# [2] = hepatocytes, cluster A24 (APAP) vs other treatment clusters
# [3] = hepatocytes, cluster A48 (APAP) vs other treatment clusters
structure (smiles),measurement,setting,value
"CC(=O)Nc1ccc(O)cc1 [APAP, acetaminophen]",avg_logFC Fmo1,[1],0.2535
same,avg_logFC Gclm,[1],0.269
same,avg_logFC Hamp2,[1],0.2597
same,avg_logFC Hsd17b7,[1],0.3023
same,avg_logFC Lcat,[1],0.2519
same,avg_logFC Mocs2,[1],0.2666
same,avg_logFC Mtdh,[1],0.2838
same,avg_logFC Ndufa3,[1],0.2765
same,avg_logFC Ndufb2,[1],0.3005
same,avg_logFC Nfe2l2,[1],0.2513
same,avg_logFC Oat,[1],0.3213
same,avg_logFC Pabpc1,[1],0.2527
same,avg_logFC Pdk1,[1],0.2558
same,avg_logFC Prkd3,[1],0.2593
same,avg_logFC Ptp4a2,[1],0.2634
same,avg_logFC Rgn,[1],0.291
same,avg_logFC Sdhc,[1],0.2722
same,avg_logFC Sdhd,[1],0.261
same,avg_logFC Slc4a4,[1],0.2916
same,avg_logFC Slc25a10,[1],0.2605
same,avg_logFC Tgoln1,[1],0.2968
same,avg_logFC Tmed5,[1],0.2563
same,avg_logFC Tmem106b,[1],0.2604
same,avg_logFC Tob1,[1],0.301
same,avg_logFC Tsc22d3,[1],0.3181
same,avg_logFC Usmg5,[1],0.2565
same,avg_logFC Zfp91,[1],0.3255
same,AA474408 avg_logFC,[2],0.4148
same,Abca1 avg_logFC,[2],0.3831
same,Acox1 avg_logFC,[2],0.2743
same,Acsl4 avg_logFC,[2],0.299
same,Adh4 avg_logFC,[2],0.392
same,Ak3 avg_logFC,[2],0.2504
same,Aox3 avg_logFC,[2],0.3489
same,Arcn1 avg_logFC,[2],0.3044
same,Atp8b1 avg_logFC,[2],0.361
same,Atp11c avg_logFC,[2],0.2568
same,Atxn1 avg_logFC,[2],0.325
same,Calm1 avg_logFC,[2],0.3702
same,Calu avg_logFC,[2],0.3005
same,Canx avg_logFC,[2],0.2771
same,Cltc avg_logFC,[2],0.3397
same,Cmah avg_logFC,[2],0.4243
same,Copa avg_logFC,[2],0.3334
same,Cps1 avg_logFC,[2],0.2775
same,Ctnnb1 avg_logFC,[2],0.329
same,Cyb5r3 avg_logFC,[2],0.3097
same,Ddost avg_logFC,[2],0.2909
same,Dhcr24 avg_logFC,[2],0.2824
same,Dnajb11 avg_logFC,[2],0.3288
same,Dnajc12 avg_logFC,[2],0.324
same,Echdc1 avg_logFC,[2],0.2818
same,Edem1 avg_logFC,[2],0.2675
same,Efna1 avg_logFC,[2],0.3161
same,Eif4g1 avg_logFC,[2],0.2763
same,Eif4g2 avg_logFC,[2],0.3515
same,Eprs avg_logFC,[2],0.2513
same,Etnk1 avg_logFC,[2],0.3194
same,Fam120a avg_logFC,[2],0.2583
same,Fasn avg_logFC,[2],0.2699
same,Fndc3b avg_logFC,[2],0.3202
same,Fos avg_logFC,[2],0.3632
same,Gjb2 avg_logFC,[2],0.2998
same,Gm5424 avg_logFC,[2],0.262
same,Gm24245 avg_logFC,[2],0.414
same,Grlf1 avg_logFC,[2],0.2556
same,Hnf4a avg_logFC,[2],0.2549
same,Hs3st3b1 avg_logFC,[2],0.3219
same,Hsd3b5 avg_logFC,[2],0.3009
same,Hspa13 avg_logFC,[2],0.342
same,Ibtk avg_logFC,[2],0.2959
same,Il6st avg_logFC,[2],0.3011
same,Il13ra1 avg_logFC,[2],0.2889
same,Insig1 avg_logFC,[2],0.4125
same,Kmo avg_logFC,[2],0.2687
same,Lasp1 avg_logFC,[2],0.2608
same,Lgr4 avg_logFC,[2],0.2572
same,Lpgat1 avg_logFC,[2],0.2525
same,Lrg1 avg_logFC,[2],0.3096
same,Lrp1 avg_logFC,[2],0.4837
same,Lrrc59 avg_logFC,[2],0.2688
same,Met avg_logFC,[2],0.2512
same,Mlec avg_logFC,[2],0.3405
same,Mtss1 avg_logFC,[2],0.2522
same,Mtus1 avg_logFC,[2],0.3125
same,Mug2 avg_logFC,[2],0.3166
same,Nab1 avg_logFC,[2],0.2601
same,Nars avg_logFC,[2],0.3127
same,Nedd4 avg_logFC,[2],0.3305
same,Nr1d2 avg_logFC,[2],0.3855
same,Nr5a2 avg_logFC,[2],0.2599
same,Nrp1 avg_logFC,[2],0.33
same,Ostc avg_logFC,[2],0.3082
same,Prg4 avg_logFC,[2],0.4007
same,Prkd3 avg_logFC,[2],0.3041
same,Proz avg_logFC,[2],0.28
same,Pten avg_logFC,[2],0.2663
same,Ptprf avg_logFC,[2],0.2888
same,Qsox1 avg_logFC,[2],0.2817
same,Rab1 avg_logFC,[2],0.3145
same,Rpn1 avg_logFC,[2],0.3991
same,Rrbp1 avg_logFC,[2],0.2968
same,Sdf2l1 avg_logFC,[2],0.3078
same,Sec31a avg_logFC,[2],0.2596
same,Sec61b avg_logFC,[2],0.3008
same,Sel1l avg_logFC,[2],0.2833
same,Sh3bgrl avg_logFC,[2],0.2668
same,Slc3a1 avg_logFC,[2],0.3074
same,Slc38a10 avg_logFC,[2],0.2557
same,Spcs3 avg_logFC,[2],0.3907
same,Srebf1 avg_logFC,[2],0.3149
same,Srp72 avg_logFC,[2],0.28
same,Srpr avg_logFC,[2],0.2914
same,Ssr1 avg_logFC,[2],0.3129
same,Stard4 avg_logFC,[2],0.2922
same,Stt3b avg_logFC,[2],0.2648
same,Tmed7 avg_logFC,[2],0.3715
same,Tmem30a avg_logFC,[2],0.3056
same,Trip12 avg_logFC,[2],0.2832
same,Txndc5 avg_logFC,[2],0.2758
same,Uggt1 avg_logFC,[2],0.2805
same,Uso1 avg_logFC,[2],0.3202
same,Usp4 avg_logFC,[2],0.2959
same,Usp9x avg_logFC,[2],0.3387
same,Zbtb20 avg_logFC,[2],0.3135
same,Abcb4 avg_logFC,[3],0.4425
same,Abcd2 avg_logFC,[3],0.2813
same,Abhd14b avg_logFC,[3],0.4059
same,Acad11 avg_logFC,[3],0.3851
same,Agt avg_logFC,[3],0.5795
same,Ahcy avg_logFC,[3],0.34
same,Ahsg avg_logFC,[3],0.3592
same,Aldh9a1 avg_logFC,[3],0.3826
same,Aldob avg_logFC,[3],0.4375
same,Ambp avg_logFC,[3],0.286
same,Amy1 avg_logFC,[3],0.4216
same,Angptl3 avg_logFC,[3],0.6111
same,Apoa5 avg_logFC,[3],0.4483
same,Apoc2 avg_logFC,[3],0.8639
same,Apoc3 avg_logFC,[3],0.407
same,Apoe avg_logFC,[3],0.5049
same,Apoh avg_logFC,[3],0.4628
same,Atp5b avg_logFC,[3],0.3281
same,Atp5h avg_logFC,[3],0.5978
same,Bfar avg_logFC,[3],0.308
same,Bnip3 avg_logFC,[3],0.462
same,Cdo1 avg_logFC,[3],0.3971
same,Cebpb avg_logFC,[3],0.3684
same,Ces1b avg_logFC,[3],0.483
same,Ces1c avg_logFC,[3],0.5488
same,Chchd10 avg_logFC,[3],0.7517
same,Cox5a avg_logFC,[3],0.4197
same,Cox8a avg_logFC,[3],0.552
same,Cp avg_logFC,[3],0.4274
same,Cyp4a10 avg_logFC,[3],0.9326
same,Cyp4a14 avg_logFC,[3],1.281
same,Dbp avg_logFC,[3],0.2896
same,Ddb1 avg_logFC,[3],0.3544
same,Decr1 avg_logFC,[3],0.5669
same,Decr2 avg_logFC,[3],0.4129
same,Ech1 avg_logFC,[3],0.418
same,Echs1 avg_logFC,[3],0.4649
same,Ephx2 avg_logFC,[3],0.3869
same,F2 avg_logFC,[3],0.3952
same,F10 avg_logFC,[3],0.3927
same,F12 avg_logFC,[3],0.388
same,Fah avg_logFC,[3],0.3913
same,Fcgrt avg_logFC,[3],0.4084
same,Fkbp5 avg_logFC,[3],0.2572
same,Fth1 avg_logFC,[3],0.375
same,Gabarap avg_logFC,[3],0.4014
same,Gc avg_logFC,[3],0.2979
same,Gltscr2 avg_logFC,[3],0.3432
same,Gm6484 avg_logFC,[3],0.4108
same,Gm23935 avg_logFC,[3],0.4738
same,Grn avg_logFC,[3],0.431
same,Gstt3 avg_logFC,[3],0.3384
same,Gys2 avg_logFC,[3],0.4231
same,Hdac11 avg_logFC,[3],0.3557
same,Herpud1 avg_logFC,[3],0.6044
same,Hmgcl avg_logFC,[3],0.5501
same,Hmgcs2 avg_logFC,[3],0.7687
same,Hpx avg_logFC,[3],0.3851
same,Hrg avg_logFC,[3],0.5316
same,Hsd17b13 avg_logFC,[3],0.6221
same,Hspa8 avg_logFC,[3],0.4107
same,Khk avg_logFC,[3],0.5202
same,Lcat avg_logFC,[3],0.5054
same,Lims2 avg_logFC,[3],0.3761
same,Lpin1 avg_logFC,[3],0.515
same,Mat1a avg_logFC,[3],0.7753
same,Mfsd2a avg_logFC,[3],0.6614
same,Mlycd avg_logFC,[3],0.4378
same,Ndrg2 avg_logFC,[3],0.3482
same,Nr1i3 avg_logFC,[3],0.4759
same,Oaf avg_logFC,[3],0.5021
same,P4hb avg_logFC,[3],0.2981
same,Pabpc1 avg_logFC,[3],0.4782
same,Plin5 avg_logFC,[3],0.3985
same,Pnpla2 avg_logFC,[3],0.3465
same,Prodh2 avg_logFC,[3],0.5055
same,Rbp4 avg_logFC,[3],0.3942
